Assays:
[1] = tested on: Botrytis cinerea; test: Test Example B: Gray mold on tomato; conditions: for Test B control value class: class of control value; for pest or weed control at 250 µg/mL: Botrytis cinerea, in Solanum lycopersicum, topical, read-out: Test B control value class
[2] = tested on: Colletotrichum orbiculare; test: Test Example H: Anthracnose on cucumber; conditions: for Test H control value class: Anthracnose on cucumber (Sagami Hanjiro), 2.5 ml/pot, assessed 6 to 10 days after inoculation; for Test H control value: 6 to 10 days after inoculation; for pest or weed control at 250 ppm: Colletotrichum orbiculare, in Cucumis sativus, topical, read-out: Test H control value class
[3] = tested on: Blumeria graminis f. sp. hordei; test: Test Example D: Powdery mildew on barley; conditions: for Test D control value class: class of control value; for pest or weed control at 250 µg/mL: Blumeria graminis, in Hordeum vulgare, topical, read-out: Test D control value class
[4] = tested on: Magnaporthe grisea; test: whole plant or invertebrate; type: in vivo; conditions: for Test A control value class: class of control value; for pest or weed control at 250 µg/mL: Pyricularia oryzae, in Oryza sativa, read-out: Test A control value class
[5] = tested on: Phytophthora infestans; test: whole plant or invertebrate; type: in vivo; conditions: for Test F control value class: class of control value; for pest or weed control at 250 µg/mL: Phytophthora infestans, in Solanum lycopersicum, topical, read-out: Test F control value class
[6] = tested on: Puccinia recondita; test: Test Example E: Brown rust on wheat; type: in vivo; conditions: for Test E control value class / pest or weed control at 250 µg/mL: class of control value; for pest or weed control at 250 µg/mL: Puccinia recondita, topical, read-out: Test E control value class
[7] = tested on: Alternaia brassicicola; test: Test Example C: Alternaria sooty spot on cabbage; type: in vivo; conditions: for Test C control value class / pest or weed control at 250 µg/mL: class of control value; for pest or weed control at 250 µg/mL: Brassica oleracea, topical, read-out: Test C control value class
From the text: Seeds of a test plant (cabbage variety: Shikidori) were planted and cultivated until the cotyledons extended.
<Control Value> Control value=100{1−(n/3)}

[8] = tested on: Plasmopara viticola; test: Test Example G: Downy mildew on vine; conditions: for Test G control value class: Downy mildew on vine (Neomuscat), 2.5 ml/pot, assessed 7 to 10 days after inoculation; for Test G control value: 7 to 10 days after inoculation; for pest or weed control at 250 ppm: Plasmopara viticola, topical, read-out: Test G control value class
[9] = Alternaria sooty spot on cabbage
[10] = 250 ppm drug solution sprayed on test plant

Structure (SMILES)	Test B control value class ([1]; Gray mold on tomato)	Test H control value class ([2]; 250 ppm spray)	Test D control value class ([3]; Powdery mildew on barley)	Test A control value class ([4]; Blast on rice)	Test F control value class ([5]; Late blight on tomato)	Test E control value class ([6]; Brown rust on wheat)	Test C control value class [7, 9]	Test G control value class ([8]; 250 ppm spray)	pest or weed control at 250 µg/mL [1]	pest or weed control at 250 ppm [2]	pest or weed control at 250 µg/mL [3]	pest or weed control at 250 µg/mL [4]	pest or weed control at 250 µg/mL [5]	pest or weed control at 250 µg/mL ([6]; Brown rust on wheat)	pest or weed control at 250 µg/mL [7, 9]	pest or weed control at 250 ppm [8]	also measured
CCn1c(-c2c(F)cc(F)cc2F)c(C(C)(O)C(C)(C)C)cc(Cl)c1=O (racemic) [compound 174]	H (more than 50% control value)	L (50% or less control value)	H (more than 50% control value)	H (more than 50% control value)	L (50% or less control value)	H (more than 50% control value)	H (more than 50% control value)	L (50% or less control value)									
CCn1c(-c2c(F)cc(OC)cc2F)c(C(C)(O)C(C)(C)C)cc(Cl)c1=O (racemic) [compound 180]	H (more than 50% control value)	L (50% or less control value)	L (50% or less control value)	H (more than 50% control value)	L (50% or less control value)	L (50% or less control value)	H (more than 50% control value)	L (50% or less control value)									
CCn1c(-c2c(F)cccc2F)c(C(C)(F)C(C)C)cc(Cl)c1=O (racemic) [compound 184]	H (more than 50% control value)	H (more than 50% control value)	H (more than 50% control value)	H (more than 50% control value)	L (50% or less control value)	H (more than 50% control value)	H (more than 50% control value)	H (more than 50% control value)									
CCOC(C)(c1cc(Cl)c(=O)n(CC)c1-c1c(F)cccc1F)C(C)C (racemic) [compound 188]																	Test B control value ([1]; Gray mold on tomato, control value class): H (more than 50% control value); Test H control value ([2]; Anthracnose on cucumber, 250 ppm spray): H (more than 50% control value); Test D control value ([3]; Powdery mildew on barley, control value class): H (more than 50% control value); Test A control value ([4]; Blast on rice, control value class): H (more than 50% control value); Test F control value ([5]; Late blight on tomato, control value class): H (more than 50% control value); Test E control value ([6]; Brown rust on wheat, control value class): H (more than 50% control value); Test C control value ([7]; Alternaria sooty spot on cabbage, control value class): H (more than 50% control value); Test G control value ([8]; Downy mildew on vine, 250 ppm spray): H (more than 50% control value)
CCC(O)c1ccc(=O)n(CC)c1-c1c(F)cc(F)cc1F (racemic) [compound 469]																	Test B control value [1, 10]: H (more than 50% control value); Test H control value ([2]; 250 ppm drug solution sprayed (2.5 ml/pot), cucumber Sagami Hanjiro): H (more than 50% control value); Test D control value [3, 10]: L (50% or less control value); Test A control value [4, 10]: L (50% or less control value); Test F control value [5, 10]: L (50% or less control value); Test E control value [6, 10]: L (50% or less control value); Test C control value [7, 10]: H (more than 50% control value); Test G control value ([8]; 250 ppm drug solution sprayed (2.5 ml/pot), grape Neomuscat): L (50% or less control value)
CCn1c(-c2c(F)cccc2F)c(C)ccc1=O [Compound No. 1, 6-(2,6-difluorophenyl)-1-ethyl-5-methylpyridin-2(1H)-one]									< 50%	< 50%	< 50%	> 50%	< 50%	< 50%	< 50%	< 50%	
CCn1c(-c2c(F)cccc2F)c(C)cc(Cl)c1=O [Compound No. 2, 3-chloro-6-(2,6-difluorophenyl)-1-ethyl-5-methylpyridin-2(1H)-one]									< 50%	> 50%	> 50%	> 50%	> 50%	< 50%	< 50%	< 50%	
CCn1c(-c2c(F)cc(F)cc2F)c(C(C)C)ccc1=O [Compound No. 7, 1-ethyl-5-isopropyl-6-(2,4,6-trifluorophenyl)pyridin-2(1H)-one]									> 50%	> 50%	> 50%	> 50%	< 50%	> 50%	> 50%	> 50%	

Reference: patent publication US11147272B2, “Pyridone compounds and agricultural and horticultural fungicides comprising the same as active ingredients” (MITSUI CHEMICALS AGRO, INC., priority 2017, dated 2021)
